Experiments:
polyU [1] = assay: W-band echo intensity and echo decay of PA-12 with polyU; format: binding
Experimental: For pulse EPR measurements, 5–6 μL of peptide in D2O with 20% glycerol-d8 was introduced into a quartz capillary of 0.9 mm i.d. and 1.1 mm o.d. and sealed with Critoseal at one end. The samples with polyU (and thus, the potential for coacervates) were flash-frozen in liquid nitrogen after incubating at room temperature for 15–20 min. Samples without polyU were directly inserted into the spectrometer at 25 K.
Pulse EPR measurements were carried out at the W band (94.9 GHz) on a home-built spectrometer at 25 K.[22]−[24] Echo intensities were measured with a Hahn echo sequence (π/2νobs – τ – πνobs – τ – echo) using π/2 and π pulses of 20–25 ns and 40–50 ns, respectively, and τ = 500 ns. Echo decays were measured under the same conditions with an initial τ value of 500 ns. DEER measurements were recorded using the four-pulse DEER sequence (π/2νobs – τ1 – πνobs – (τ1 + t) – πνpump – (τ2-t) – πνobs – τ2 – echo)[25],[26] with a chirp pump pulse[23] using eight-step phase cycling and monitoring the echo intensity as a function of increasing t. […] The DEER data were analyzed using the DeerAnalysis 2018[27] program with Tikhonov regularization[28] and also verified with DEERNet.[29] […] The calculated distance distributions were obtained from mtsslSuite[30] using maleimide TEMPO (M-TEMPO) as the ligand, and 200 rotamer conformations were generated using clash treatment set to “loose”. […]

polyU [2] = assay: Coacervate (droplet) formation with polyU, optical microscopy; format: physicochemical; conditions: for coacervate formation with polyU: 150 μM, 50 mM MES pH 5.6
Experimental: Optical microscopy images of phase-separated samples were taken at the de Picciotto Cancer Cell Observatory Life Sciences Core Facilities (Weizmann Institute of Science) using a 100× objective (oil immersion) on a Leica DMI8 microscope with differential interface contrast. We used 1–2 μL of the sample to make a small drop in an imaging chamber produced by attaching a coverslip to a clean glass slide using a thin strip of double-sided tape (AJ Sign World). Images were processed using the software package Fiji (NIH).
Lyophilized, spin-labeled peptides were dissolved in Milli-Q water and centrifuged at 4000 rpm for 10 min to remove insoluble aggregates. The soluble fractions were used to prepare stock solutions of 250–500 μM peptide. Labeled peptide concentrations were determined by comparing the area under the curve of the EPR signal against that of standard solutions of 10–285 μM TEMPO. For the EPR measurements in D2O, 200 μL of the stock solution was lyophilized and re-dissolved in D2O. The concentration of the unlabeled peptide stock solutions was determined using the bicinchoninic acid assay (Thermo Fisher Scientific) and ranged from 0.8 to 1.2 mM peptide. A stock solution of 500 mM MES, pH 5.6 was used to adjust all samples to a final concentration of 50 mM MES, pH 5.6. Aliquots of 10 mg/mL polyuridylic acid (polyU; Sigma Aldrich) were prepared in Milli-Q water and diluted as necessary. For CW-EPR measurements, a quartz capillary of 0.6 mm i.d. and 0.84 mm o.d. was filled with 7–8 μL of the sample and sealed with Critoseal (Fisherbrand, Fisher Scientific) at one end. A single capillary was placed in an X-band EPR tube of 2 mm i.d. and 2.4 mm o.d. for measurements, except for spin concentration below 50 μM, where two capillaries were used.
Each sample was freshly prepared and the time to collect […] CW-EPR data was 30–40 min.

Q: Which results are given for “RIRRASVEELTCVPGIGPRLARRILERLA [PA-12, Precursor-Arg peptide in which position 12 has been modified with a cysteine and attached to an M-TEMPO spin label]”?
A: echo signal remaining (polyU [1]; 150 μM PA-12, 0.5 mg/mL polyU (plateau), relative to no polyU): 8%; fast-decaying echo component (polyU [1]; 1 mg/mL polyU, 80% spin dilution, final PA 150 μM): the fast-decaying component became clearly visible; droplet formation with polyU (polyU [2]; 50 μM PA-12 and above, 1 mg/mL polyU): a significant number of droplets; coacervate formation with polyU (polyU [2]; 0.35 or 0.5 mg/mL polyU): only a few tiny droplets were observed; coacervate formation with polyU (polyU [2]; 1 or 2 mg/mL polyU): readily form coacervates

Reference: paper PMC9376946, “Peptide-RNA Coacervates as a Cradle for the Evolution of Folded Domains” (Journal of the American Chemical Society, 2022)
